Counter-ions that a name gives are not always drawn. Like-named read-outs stand apart in the source and are kept apart here.
What was measured:
[1] = system: blood glucose level; experiment: Hypoglycemic activity in normal fed rats (Table 2); assay type: in vivo, male Sprague Dawley rats; details: Rattus norvegicus
Experimental: The procedure used in this test system is described below.
The desired dose level of each test formulation was administered to four rats by oral […] at the beginning of the experiment. Blood glucose levels were determined immediately before the first dose and at 3 and 5 hours thereafter by an enzymatic procedure employing glucose oxidase and peroxidase coupled with a chromogenic oxygen acceptor. A mean was taken of the 4 values obtained before the first dose and at the 3 and 5 hour intervals.

[2] = system: blood glucose level; experiment: Hypoglycemic activity in obese diabetic mice (Table 1); assay type: in vivo, male viable yellow obese-diabetic mice; details: Mus musculus, ip
Experimental: The hypoglycemic activity of the compounds of the present invention was determined by testing the efficacy of the compounds in vivo in male viable yellow obese-diabetic mice. The test procedure is described in detail below.
Test formulations were prepared by dissolving the test compound in a saline solution containing 2% Emulphor (a polyoxyethylated vegetable oil surfactant from GAP Corp.) to provide the dose level desired. Each test formulation was administered to six viable yellow obese-diabetic mice intraperitoneally at the beginning of the experiment. Blood glucose levels were determined immediately before the first dose and at 2 and 4 hours thereafter using glucose oxidase. A mean was taken of the 6 values obtained before the first dose and at the 2 and 4 hour intervals. In Table 1, Column 1 provides the example number of the test compound, Column 2 provides the dose level of compound tested, and Columns 3 and 4 provide a measurement of the test animal's blood glucose level 2 and 4 hours after test compound administration, respectively, as a percentage of the test animal' s pre-administration blood glucose level.

[3] = biological target: T1, Human liver cathepsin D (Homo sapiens, UniProt P07339); experiment: Cathepsin D inhibition, fluorometric assay (Tables 5 and 6); assay type: biochemical; details: for inhibition at 4.15 µg/mL (stock): Compound Stock Concentration 4.15 μg/ml
T1 construct: purchased Athens Research and Technology, Athens, Ga; host or cells: human liver
T1 sequence (P07339 169-412 limits assumed): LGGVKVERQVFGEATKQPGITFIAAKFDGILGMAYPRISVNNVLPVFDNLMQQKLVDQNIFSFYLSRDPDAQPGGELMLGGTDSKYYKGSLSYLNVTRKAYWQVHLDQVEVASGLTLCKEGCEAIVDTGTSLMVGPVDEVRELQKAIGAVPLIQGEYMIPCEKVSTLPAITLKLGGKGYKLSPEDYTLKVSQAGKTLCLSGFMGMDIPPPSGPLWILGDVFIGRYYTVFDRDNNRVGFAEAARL
T1 sequence (P07339 65-161 limits assumed): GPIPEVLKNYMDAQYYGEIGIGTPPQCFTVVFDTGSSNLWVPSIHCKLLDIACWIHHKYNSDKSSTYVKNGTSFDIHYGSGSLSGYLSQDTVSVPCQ
Experimental: Human liver cathepsin D (Athens Research and Technology, Athens, Ga.) was diluted in assay buffer, 200 mM NaOAc, pH 4.5, 150 mM NaCl to 500 ng/mL and then 100 μL of this cathepsin D solution was added to each well of a 96 well plate with the exception of control wells which received just 100 μL of assay buffer. […] Blank and enzyme control wells each received 5 μL of the DMSO vehicle.
After incubation at 37° C. for 30 minutes, cathepsin D activity was terminated by the addition of 100 μL per well of 400 mU/mL microsomal leucine aminopeptidase (EC 3.4.11.2, Sigma, St. Louis, Mo.) in 1M Tris-HCl, pH 8.0.
Following a two hour incubation at 37° C., to allow the aminopeptidase to release the fluorophore, 7-amido-4-methylcoumarin (AMC) from the products of cathepsin D cleavage, the plates were again analyzed in the fluorometer. In order to check for potential false positives, i.e., inhibitors of microsomal leucine aminopeptidase, residual aminopeptidase activity was monitored directly in each well by the addition of 20 μL/well of 2.5 mM Leu-pNA (Bachem Biosciences, Philadelphia, Pa.) in 10% DMSO.

[4] = oral, 3 hrs, read-out: Percent of Initial Blood Glucose Level After 3 hrs.
[5] = oral, 5 hrs, read-out: Percent of Initial Blood Glucose Level After 5 hrs.
[6] = 2 h, intraperitoneal, 2 hrs, read-out: Percent of Initial Blood Glucose Level After 2 hrs.
[7] = 4 h, intraperitoneal, 4 hrs, read-out: Percent of Initial Blood Glucose Level After 4 hrs.
[8] = 200 mg/kg, oral, 3 hrs, read-out: Percent of Initial Blood Glucose Level After 3 hrs.
[9] = 200 mg/kg, oral, 5 hrs, read-out: Percent of Initial Blood Glucose Level After 5 hrs.
[10] = intraperitoneal, 2 hrs, read-out: Percent of Initial Blood Glucose Level After 2 hrs.
[11] = intraperitoneal, 4 hrs, read-out: Percent of Initial Blood Glucose Level After 4 hrs.

| SMILES | response vs control in vivo at 50 mg/kg [2, 6] [%] | response vs control in vivo at 50 mg/kg [2, 7] [%] | response vs control in vivo at 200 mg/kg [1, 8] [%] | response vs control in vivo at 200 mg/kg [1, 9] [%] | other results |
| --- | --- | --- | --- | --- | --- |
| O=C1NC(=S)SC1=Cc1ccco1 [Example 15, 5-[(2-furanyl)methylene]-2-thioxo-4-thiazolidinone] | 73 ± 5 | 62 ± 4 |  |  | response vs control in vivo at 167 mg/kg [1, 4]: 84%; response vs control in vivo at 167 mg/kg [1, 5]: 87% |
| O=C1NC(=S)SC1=Cc1ccncc1 [Example 16, 5-[(4-pyridyl)methylene]-2-thioxo-4-thiazolidinone] | 94 ± 8 | 96 ± 9 | 92 | 79 |  |
| COc1cc(C=C2SC(=S)NC2=O)cc(OC)c1OC [Example 17, 5-[(3,4,5-trimethoxyphenyl)methylene]-2-thioxo-4-thiazolidinone] | 88 ± 8 | 89 ± 10 | 78 | 68 |  |
| COc1cccc(C=C2SC(=S)NC2=O)c1OC [Example 24, 5-[(2,3-dimethoxyphenyl)methylene]-2-thioxo-4-thiazolidinone] | 78 ± 4 | 80 ± 5 | 100 | 100 |  |
| COc1cccc(C=C2SC(=S)NC2=O)c1 [Example 25, 5-[(3-methoxyphenyl)methylene]-2-thioxo-4-thiazolidinone] |  |  | 100 | 100 | response vs control in vivo at 25 mg/kg [2, 10]: 84 ± 5%; response vs control in vivo at 25 mg/kg [2, 11]: 87 ± 6%; response vs control in vivo at 50 mg/kg [2, 10]: 78 ± 4%; response vs control in vivo at 50 mg/kg [2, 11]: 74 ± 4% |
| COc1ccccc1C=C1SC(=S)NC1=O [Example 26, 5-[(2-methoxyphenyl)methylene]-2-thioxo-4-thiazolidinone] | 80 ± 4 | 75 ± 2 | 100 | 100 |  |
| CCOc1cc(C=C2SC(=S)NC2=O)ccc1O [Example 32, 5-[(3-ethoxy-4-hydroxyphenyl)methylene]-2-thioxo-4-thiazolidinone] | 75 ± 4 | 80 ± 8 | 100 | 96 | inhibition at 4.15 µg/mL (stock) [3]: 75% |
| CCCCOc1ccc(C=C2SC(=S)NC2=O)cc1OC [Example 41, 5-[(3-methoxy-4-butoxyphenyl)methylene]-2-thioxo-4-thiazolidinone] | 61 ± 3 |  |  |  | response vs control in vivo at 160 mg/kg [1, 4]: 76%; response vs control in vivo at 160 mg/kg [1, 5]: 67%; response vs control in vivo at 5 mg/kg ([2]; 2 h, 5 mg/kg, intraperitoneal, 2 hrs, read-out: Percent of Initial Blood Glucose Level After 2 hrs.): 93 ± 10%; response vs control in vivo at 10 mg/kg ([2]; 2 h, 10 mg/kg, intraperitoneal, 2 hrs, read-out: Percent of Initial Blood Glucose Level After 2 hrs.): 80 ± 7% |
| CCOc1ccc(C=C2SC(=S)NC2=O)cc1OC [Example 48, 5-[(3-methoxy-4-ethoxyphenyl)methylene]-2-thioxo-4-thiazolidinone] | 70 ± 3 | 65 ± 3 |  |  | response vs control in vivo at 167 mg/kg [1, 4]: 87%; response vs control in vivo at 167 mg/kg [1, 5]: 81%; response vs control in vivo at 25 mg/kg [2, 6]: 87 ± 4%; response vs control in vivo at 25 mg/kg [2, 7]: 81 ± 5% |
| CCCOc1ccc(C=C2SC(=S)NC2=O)cc1OCC [Example 49, 5-[(3-ethoxy-4-propoxyphenyl)methylene]-2-thioxo-4-thiazolidinone] | 83 ± 5 | 77 ± 7 | 100 | 98 |  |
| CCCCCOc1ccc(C=C2SC(=S)NC2=O)cc1OC [Example 57, 5-[(3-methoxy-4-pentoxyphenyl)methylene]-2-thioxo-4-thiazolidinone sodium salt] |  |  |  |  | response vs control in vivo at 200 mg/kg ([1]; po, 3 h, read-out: Percent of Initial Blood Glucose Level After 3 hrs.): 84%; response vs control in vivo at 200 mg/kg ([1]; po, 5 h, read-out: Percent of Initial Blood Glucose Level After 5 hrs.): 73%; response vs control in vivo at 5 mg/kg ([2]; 2 h, read-out: Percent of Initial Blood Glucose Level After 2 hrs., 5 mg/kg, intraperitoneal, 2 hrs): 82 ± 6%; response vs control in vivo at 10 mg/kg ([2]; 2 h, read-out: Percent of Initial Blood Glucose Level After 2 hrs., 10 mg/kg, intraperitoneal, 2 hrs): 95 ± 3%; response vs control in vivo at 5 mg/kg ([2]; 4 h, read-out: Percent of Initial Blood Glucose Level After 4 hrs., 5 mg/kg, intraperitoneal, 4 hrs): 68 ± 5%; response vs control in vivo at 10 mg/kg ([2]; 4 h, read-out: Percent of Initial Blood Glucose Level After 4 hrs., 10 mg/kg, intraperitoneal, 4 hrs): 87 ± 6% |
| CCOc1cc(C=C2SC(=S)NC2=O)ccc1OC [Example 58, 5-[(3-ethoxy-4-methoxyphenyl)methylene]-2-thioxo-4-thiazolidinone] | 67 ± 2 | 75 ± 5 | 100 | 100 |  |
| CCCOc1ccc(C=C2SC(=S)NC2=O)cc1 [Example 61, 5-[(4-propoxyphenyl)methylene]-2-thioxo-4-thiazolidinone] |  | 61 ± 5 | 89 | 82 |  |
| COc1cc(C=C2SC(=S)NC2=O)cc(OC)c1O [Example 63, 5-[(3,5-dimethoxy-4-hydroxyphenyl)methylene]-2-thioxo-4-thiazolidinone] |  |  | 69 | 52 | inhibition at 4.15 µg/mL (stock) [3]: 53% |
| CCCCCOc1ccc(CC2SCNC2=O)cc1OC (stereo not drawn) [Example 67, 5-[(3-methoxy-4-pentoxyphenyl)methyl]-4-thiazolidinone] |  |  | 92 | 88 |  |
| CCCCCCOc1ccc(C=C2SC(=S)NC2=O)cc1OC [Example 68, 5-[(3-methoxy-4-hexoxyphenyl)methylene]-2-thioxo-4-thiazolidinone] |  |  | 88 | 89 | IC50 [3]: 10.2 µM; inhibition at 4.15 µg/mL (stock) [3]: 53.7% |
| CCCCCCCCOc1ccc(C=C2SC(=S)NC2=O)cc1OC [Example 69, 5-[(3-methoxy-4-octoxyphenyl)methylene]-2-thioxo-4-thiazolidinone] |  |  | 93 | 88 | IC50 [3]: 2.1 µM; inhibition at 4.15 µg/mL (stock) [3]: 51% |

Source: patent US5523314A, “Compounds useful as hypoglycemic agents and for treating Alzheimer's disease” (priority 1994, dated 1996)
